We go through 77 compounds from PubChem BioAssay AID743478 (Broad Institute, 2014).

Structures are written as SMILES. Values joined by “and” are separate entries in the source; they are usually repeats but may differ in a detail not shown here. Equal entries are not always repeated. Active and inactive are the calls of the source.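 Rule for the calls: active = fitted curve falls past -35% activity change at a dose below twice the highest valid tested dose; inconclusive = no clear call, values can overlap the other calls; inactive = the rest, including activity opposite to the expected decrease.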

System in one assay: not listed separately
In words: A673 Ewing sarcoma cell viability loss – luminescence, retest at dose, dry powder, confirmation (AID 743478). As to conditions: A673 viability, CellTiter-Glo ATP luminescence, 72 h; at 1.6 µM (top of the series).
`CCN(CCO)CCCOc1ccc2c(Nc3cc(CC(=O)Nc4cccc(F)c4)[nH]n3)ncnc2c1`: the activity change, negative = cytotoxicity was -35.3% (inactive).

Still in this assay, the particulars now being: A673 viability, CellTiter-Glo ATP luminescence, 72 h; at 6 µM (top of the series).
As to `Clc1ccc(-c2cnc3ccc(-c4ccccc4)cn23)cc1`, the activity change, negative = cytotoxicity was 1.33% (inactive).

Staying with this assay, now noted: A673 viability, CellTiter-Glo ATP luminescence, 72 h; at 12 µM (top of the series).
Consider `COc1ccc(NC(=O)Nc2ccc3c(c2)C(=O)N([C@@H](C)CO)C[C@H](C)[C@H](CN(C)Cc2ccc4c(c2)OCO4)O3)cc1`, for which the activity change, negative = cytotoxicity was -32.3% (inactive).

Still in this assay, the particulars now being: A673 viability, CellTiter-Glo ATP luminescence, 72 h; at 26 µM (top of the series).
On to `COc1ccc(C2=Nn3c(nnc3-c3ccccc3)SC2)cc1OC`, for which the activity change, negative = cytotoxicity was -5.89% (inactive). Turning to `O=C(Nc1c(Cl)cncc1Cl)c1ccc(OC(F)F)c(OCC2CC2)c1`, the activity change, negative = cytotoxicity was 7.47% (inactive).

Consider `CCC(C)(C)C(=O)O[C@H]1C[C@@H](C)C=C2C=C[C@H](C)[C@H](CC[C@@H]3C[C@@H](O)CC(=O)O3)[C@H]21`, for which the activity change, negative = cytotoxicity was -7.51% (inactive).

Consider `COc1ccc(CNc2nc(N3CCC[C@H]3CO)ncc2C(=O)NCc2ncccn2)cc1Cl`, for which the activity change, negative = cytotoxicity was 0.28% (inactive). With `COc1ccc(C2C(C#N)=C(N)Oc3cc(N)ccc32)cc1` (configuration not stated), the activity change, negative = cytotoxicity was -1.79% (inactive). On the same count and under the same terms, the result for `Cc1ccc(C2C(C#N)=C(N)Oc3cc(N)ccc32)cc1` (configuration not stated) reads -0.754% (inactive); that for `COc1ccc(C2CNC(=O)C2)cc1OC1CCCC1` (configuration not stated), -1.09% (inactive); that for `COc1ccccc1C1C(C#N)=C(N)Oc2cc(N)ccc21` (configuration not stated), -4.28% (inactive). Take `CN1c2ccc(-c3ccc(C#N)cc3)cc2[C@H]2[C@H](CCN2S(=O)(=O)c2ccc(F)cc2)[C@H]1CO`: the activity change, negative = cytotoxicity is -15.2% (inactive). As to `COc1ccc(-c2cc(NC(C)=O)c3ncc(-c4ccc(OC)c(OC)c4)n3c2)cc1`, the activity change, negative = cytotoxicity was -6.5% (inactive).

`N#CC1=C(N)Oc2cc(N)ccc2C1c1ccc(Cl)cc1` (configuration not stated): the activity change, negative = cytotoxicity is 0.262% (inactive). In the case of `C[C@]1(c2nc3c(C(N)=O)cccc3[nH]2)CCCN1`, the activity change, negative = cytotoxicity was -26% (inactive).

Staying with this assay, now noted: A673 viability, CellTiter-Glo ATP luminescence, 72 h; at 50 µM (top of the series).
Regarding `O=P1(NCCCl)OCCCN1CCCl` (configuration not stated), the activity change, negative = cytotoxicity is 0.494% (inactive).

For a further assay, the system named is A673 viability, CellTiter-Glo ATP luminescence, 72 h. The assay is described as above.
Settings: not given
Consider `N#CC1=C(N)Oc2cc(N)ccc2C1c1ccc2ccccc2c1` (configuration not stated), for which the AC35 was 11.9 µM.

On to `N#CC1=C(N)Oc2cc(N)ccc2C1c1cccc(F)c1` (configuration not stated), for which the AC35 is 0.907 µM.

Turning to `COc1ccc(-c2ccc3c(c2)[C@H]2[C@H](CCN2S(=O)(=O)c2ccc(OC)cc2)[C@@H](CO)N3)cc1`, the AC35 was 3.95 µM. Same read-out and setting: the result for `N#CC1=C(N)Oc2cc(N)ccc2C12C(=O)Nc1ccc(Br)cc12` (configuration not stated) reads 18.9 µM; that for `Cc1cccc(C2C(C#N)=C(N)Oc3cc(N)ccc32)c1` (configuration not stated), 0.486 µM; that for `CN1CCN(CCOc2cc(OC3CCOCC3)c3c(Nc4c(Cl)ccc5c4OCO5)ncnc3c2)CC1`, 22 µM. For `COc1ccc(S(=O)(=O)N2CC[C@@H]3[C@@H](CO)Nc4ccc(-c5ccc(C#N)cc5)cc4[C@@H]32)cc1`, the AC35 is 4.03 µM. With `COc1ccc(S(=O)(=O)N2CC[C@@H]3[C@@H](CO)N(C)c4ccc(-c5ccc(F)cc5)cc4[C@@H]32)cc1`, the AC35 is 3.08 µM.

Take `N#CC1=C(N)Oc2cc(N)ccc2C1c1ccccc1Cl` (configuration not stated): the AC35 was 12.3 µM.

In the case of `O=C(Cc1ccc(-c2ccc(OCCN3CCOCC3)cc2)cn1)NCc1ccccc1`, the AC35 was under 0.0235 µM. With `COc1ccc(OC)c(-c2nnc3n2N=C(c2ccc(OC)c(OC)c2)CS3)c1`, the AC35 is < 0.0235 µM and 0.0163 µM. Consider `COc1ccc(S(=O)(=O)N2CC[C@@H]3[C@H](CO)Nc4ccc(-c5ccc(C#N)cc5)cc4[C@@H]32)cc1`, for which the AC35 is 6.54 µM. Regarding `Cc1nc(Nc2ncc(C(=O)Nc3c(C)cccc3Cl)s2)cc(N2CCN(CCO)CC2)n1`, the AC35 is 5.45 µM.

In the case of `COc1ccc(-c2cc(NC=O)c3ncc(-c4ccc(OC)c(OC)c4)n3c2)cc1`, the AC35 is 0.545 µM. Take `N#Cc1ccc(-c2ccc3c(c2)[C@H]2[C@H](CCN2S(=O)(=O)c2cccc(F)c2)[C@@H](CO)N3)cc1`: the AC35 was 5.43 µM. The same measure, in the same setting: in the case of `CC(C)(O)CCc1ccc(O)c2c(=O)c3c(O)c4c(cc3oc12)O[C@H]1OC=C[C@@]41O` it was 0.0326 µM; in that of `N#CC1=C(N)Oc2cc(N)ccc2C1c1cccc(Br)c1` (configuration not stated), 0.104 µM; in that of `CC(C)N1c2ccccc2C(c2ccc(F)cc2)C1/C=C/C(O)CC(O)CC(=O)O` (configuration not stated), 1.42 µM. Turning to `COc1ccc(C(=O)CC2(O)C(=O)Nc3c(Cl)ccc(Cl)c32)cc1` (configuration not stated), the AC35 is 2.25 µM. As to `C[C@@]1(C(=O)Nc2ccc(F)nc2)CCCN1c1nc(Nc2cc(C3CC3)[nH]n2)c2cccn2n1`, the AC35 was 0.296 µM. As to `Nc1ncnc2c1c(-c1cccc(OCc3ccccc3)c1)cn2C1CC(CN2CCCC2)C1` (configuration not stated), the AC35 was 3.76 µM. Turning to `COc1cccc2c1C(=O)c1c(O)c3c(c(O)c1C2=O)C[C@@](O)(C(=O)CO)C[C@@H]3O[C@H]1C[C@H](N)[C@H](O)[C@H](C)O1`, the AC35 was under 0.05 µM.

As to `CN(C)c1ccc2c(c1)OC(N)=C(C#N)C2c1cccc(F)c1` (configuration not stated), the AC35 is 0.0177 µM. With `COc1ccccc1-c1nnc2n1N=C(c1ccc(O)c(O)c1)CS2`, the AC35 was 0.807 µM. Consider `COc1ccc(S(=O)(=O)N2CC[C@@H]3[C@@H](CO)Nc4ccc(-c5cccc(C#N)c5)cc4[C@@H]32)cc1`, for which the AC35 is 3.95 µM. Consider `N#CC1=C(N)Oc2cc(OC(=O)c3ccccc3)ccc2C1c1cccc(Br)c1` (configuration not stated), for which the AC35 is 2.46 µM. As to `Cc1cc(Nc2cc(N3CCN(C)CC3)nc(Sc3ccc(NC(=O)C4CC4)cc3)n2)n[nH]1`, the AC35 was 0.271 µM. Regarding `N#CC1=C(N)Oc2cc(N)ccc2C1c1ccccc1` (configuration not stated), the AC35 was 12.2 µM.

`COc1ccc(C2=Nn3c(nnc3-c3ccccc3F)SC2)cc1OC`: the AC35 is 3.18 µM.

Consider `N#CC1=C(N)Oc2ccc3ccccc3c2C1c1cccc(F)c1` (configuration not stated), for which the AC35 is 0.526 µM. Consider `CC1(C)CC(c2nc(-c3ccc4ccc(-c5ccccc5)nc4c3)c3c(N)nccn23)C1`, for which the AC35 is 2.02 µM.

For the compound `COc1ccc(-c2ccc3c(c2)[C@H]2[C@H](CCN2S(=O)(=O)c2ccc(OC)cc2)[C@@H](CO)N3C)cc1`, the AC35 was 3.42 µM.

As for `Cn1cc(-c2ccncc2)c(-c2ccc(OCc3ccc4ccccc4n3)cc2)n1`, the AC35 is 21.3 µM.

Turning to `Nc1ccn([C@@H]2O[C@H](CO)[C@H](O)C2O)c(=O)n1` (some centres not stated), the AC35 is 0.066 µM. Take `CCC(C)C(=O)OC1CC(C)C=C2C=CC(C)C(CCC(O)CC(O)CC(=O)O)C21` (configuration not stated): the AC35 was 25.2 µM.

Regarding `Cc1ccc([N+](=O)[O-])cc1S(=O)(=O)N(C)C`, the AC35 was 3.97 µM. As to `Cc1ccc(S(=O)(=O)N2CC[C@@H]3[C@@H](CO)Nc4ccc(-c5ccc(C#N)cc5)cc4[C@@H]32)cc1`, the AC35 is 19.8 µM. Same read-out and setting: in the case of `N#CC1=C(N)Oc2cc3c(cc2C1c1cccc(Br)c1)OCO3` (configuration not stated) it was 0.0288 µM; in that of `CCCCc1ccc2nc(NC(=O)OC)[nH]c2c1`, under 0.05 µM.

Turning to `COc1ccc(C2=Nn3c(nnc3-c3ccccc3Cl)SC2)cc1OC`, the AC35 was 0.392 µM.

With `CCOC(=O)CCNc1cc(N2CCc3ccccc3CC2)nc(-c2ccccn2)n1`, the AC35 was 14.8 µM.

Take `CN(C(=O)CCCOc1ccc2[nH]c(=O)ccc2c1)C1CCCCC1`: the AC35 is 20.7 µM. For `N#CC1=C(N)Oc2cc(O)ccc2C1c1cccc(Br)c1` (configuration not stated), the AC35 is 1.84 µM. The same measure, in the same setting: the result for `Cc1c([C@H](C(Cl)Cl)[C@H](O)[C@H]2C[C@H](C)C(=O)O2)ccc2c1C(=O)[C@H]1[C@H]2C[C@@H](Br)[C@@]23O[C@@H](CO[C@H]2O)C[C@]13C` reads under 0.05 µM; that for `COc1ccc(S(=O)(=O)N(C(C)=O)c2ccc(OC(C)=O)c3ccccc23)cc1[N+](=O)[O-]`, 0.46 µM; that for `CN1c2ccc(-c3ccc(C#N)cc3)cc2[C@H]2[C@H](CCN2S(=O)(=O)c2cccc(F)c2)[C@H]1CO`, 3.65 µM. For the compound `COc1ccccc1-c1nnc2n1N=C(c1ccc3c(c1)OCO3)CS2`, the AC35 was 0.0164 µM. As to `Cc1ccccc1C1C(C#N)=C(N)Oc2cc(N)ccc21` (configuration not stated), the AC35 was 13.1 µM. In the case of `COc1cccc(C2C(C#N)=C(N)Oc3cc(N)ccc32)c1` (configuration not stated), the AC35 is 0.444 µM. Consider `COc1cccc(S(=O)(=O)N2CC[C@@H]3[C@@H](CO)Nc4ccc(-c5ccc(C#N)cc5)cc4[C@@H]32)c1`, for which the AC35 is 21.4 µM. Regarding `COc1ccc(C2=Nn3c(nnc3-c3ccccc3OC)SC2)cc1OC`, the AC35 was 0.0556 µM. For the compound `O=C(c1cc(Cc2n[nH]c(=O)c3ccccc23)ccc1F)N1CCN(C(=O)C2CC2)CC1`, the AC35 is 3.97 µM. On to `CCc1c2c(nc3ccc(O)cc13)-c1cc3c(c(=O)n1C2)COC(=O)C3(O)CC` (configuration not stated), for which the AC35 is 0.002 µM. `CC[C@@]1(O)C(=O)OCc2c1cc1n(c2=O)Cc2cc3c(CN(C)C)c(O)ccc3nc2-1`: the AC35 was 0.0166 µM.

In the case of `COc1cc([C@@H]2c3cc4c(cc3[C@@H](O[C@@H]3O[C@@H]5CO[C@@H](C)O[C@H]5[C@H](O)[C@H]3O)[C@H]3COC(=O)[C@H]23)OCO4)cc(OC)c1O`, the AC35 was 0.751 µM. As for `COc1ccccc1S(=O)(=O)N1CC[C@@H]2[C@@H](CO)Nc3ccc(-c4ccc(C#N)cc4)cc3[C@@H]21`, the AC35 was 11.6 µM. Regarding `Clc1ccccc1-c1nnc2n1N=C(c1ccc3c(c1)OCO3)CS2`, the AC35 was 0.408 µM. On to `COc1cc(C2C(C#N)=C(N)Oc3cc(N(C)C)ccc32)cc2c1OCO2` (configuration not stated), for which the AC35 is 0.0823 µM. Turning to `C=C([C@@H](O)[C@@H](C)O)[C@@H](OC)[C@]1(C)Cc2cc3cc(O[C@H]4CC(OC5CC(O)C(O)C(C)O5)C(O)C(C)O4)cc(O)c3c(O)c2C(=O)[C@H]1OC1CC(OC2CC(OC3CC(C)(O)C(O)C(C)O3)C(O)C(C)O2)C(O)C(C)O1` (some centres not stated), the AC35 is 0.0368 µM. As to `CC[C@]1(O)CC2CN(CCc3c([nH]c4ccccc34)[C@@](C(=O)OC)(c3cc4c(cc3OC)N(C=O)[C@H]3[C@@](O)(C(=O)OC)[C@H](OC(C)=O)[C@]5(CC)C=CCN6CC[C@]43[C@@H]65)C2)C1` (some centres not stated), the AC35 was under 0.0015 µM. As to `N#Cc1ccc(-c2ccc3c(c2)[C@H]2[C@H](CCN2S(=O)(=O)c2ccccc2F)[C@@H](CO)N3)cc1`, the AC35 is 12.5 µM.
